Results from ChEMBL document CHEMBL5303304, “EUbOPEN Chemogenomics Library - IncuCyte” (2023).

Assays:
Assay type in all cases: toxicity, cell-based
Fibroblast = experiment: Incucyte cell viability with human fibroblast; settings: 10 µM, compound concentration 10 uM
U2OS = experiment: Incucyte cell viability with U2OS; settings: human, 10 µM, compound concentration 10 uM
HEK-293T = experiment: Incucyte cell viability with HEK293T; settings: human, 10 µM, compound concentration 10 uM
Also: unitless GR value; below 1 slowed growth and below 0 cell loss.

Row | Structure (SMILES) | Growth Rate (Fibroblast; 6 h, replicate number 1) | Growth Rate (Fibroblast; 6 h, replicate number 2) | Growth Rate (Fibroblast; 12 h, replicate number 1) | Growth Rate (Fibroblast; 18 h, replicate number 1) | Growth Rate (Fibroblast; 18 h, replicate number 2) | Growth Rate (Fibroblast; 24 h, replicate number 1) | Growth Rate (Fibroblast; 24 h, replicate number 2) | Growth Rate (U2OS; 0 h, replicate number 1) | Growth Rate (U2OS; 0 h, replicate number 2) | Growth Rate (U2OS; 12 h, replicate number 1) | Growth Rate (U2OS; 12 h, replicate number 2) | Growth Rate (U2OS; 18 h, replicate number 2) | Growth Rate (HEK-293T; 0 h, replicate number 1) | Growth Rate (HEK-293T; 0 h, replicate number 2) | Growth Rate (HEK-293T; 6 h, replicate number 2) | Growth Rate (HEK-293T; 12 h, replicate number 2) | Growth Rate (HEK-293T; 18 h, replicate number 2) | Growth Rate (HEK-293T; 24 h, replicate number 2) | Growth Rate (Fibroblast; 12 h, replicate number 2) | Growth Rate (HEK-293T; 12 h, replicate number 1) | further results
1 | CCN(C(=O)c1cc(F)ccc1Oc1cncnc1N1CC2(CCN(C[C@H]3CC[C@H](NS(=O)(=O)CC)CC3)CC2)C1)C(C)C [REVUMENIB] | 0.15 | 0.81 | 0.94 | 0.79 | 0.88 | 0.88 | 0.93 | 0.19 | 0.45 | 0.8 | 0.79 | 0.76 | -0.33 | 0.43 | 0.24 | 0.53 | 0.48 | 0.38 |  |  | Growth Rate (Fibroblast; 0 h, replicate number 2): 0.3; Growth Rate (U2OS; 6 h, replicate number 1): 0.62; Growth Rate (U2OS; 6 h, replicate number 2): 0.45; Growth Rate (U2OS; 18 h, replicate number 1): 0.77; Growth Rate (U2OS; 24 h, replicate number 1): 0.76; Growth Rate (U2OS; 24 h, replicate number 2): 0.67
2 | COc1ccc(F)c(F)c1C(=O)c1cnc(NC2CCN(S(C)(=O)=O)CC2)nc1N [RG-547] |  | 0.62 |  | 0.96 | 0.28 | 0.65 | 0.15 | -1 | 0.68 | 0.73 | 0.02 | 0.02 | -1 | 0.15 | -0.37 | -0.5 | -0.47 | -0.37 | 0.53 | -0.1 | Growth Rate (Fibroblast; 0 h, replicate number 1): -1; Growth Rate (Fibroblast; 0 h, replicate number 2): 0.02; Growth Rate (U2OS; 6 h, replicate number 2): 0.23; Growth Rate (U2OS; 18 h, replicate number 1): 0.18; Growth Rate (U2OS; 24 h, replicate number 1): 0.06; Growth Rate (U2OS; 24 h, replicate number 2): -0.11; Growth Rate (HEK-293T; 6 h, replicate number 1): 0.16; Growth Rate (HEK-293T; 18 h, replicate number 1): -0.15; Growth Rate (HEK-293T; 24 h, replicate number 1): -0.13
3 | C=CC(=O)Nc1ccc2[nH]c(=O)n(C3CCN(Cc4ccc(-c5ccc6c(c5)NC(=O)CO6)cc4)CC3)c2c1 [RL2578] | 0.84 | 0.95 | 0.87 | 0.72 | 0.52 | 0.45 | 0.51 | 0.69 |  | 0.76 | 0.91 | 0.78 |  |  | 0.23 | 0.43 | 0.45 | 0.42 | 0.71 | 0.24 | Growth Rate (Fibroblast; 0 h, replicate number 1): -1; Growth Rate (U2OS; 6 h, replicate number 1): 0.83; Growth Rate (U2OS; 18 h, replicate number 1): 0.75; Growth Rate (U2OS; 24 h, replicate number 1): 0.93; Growth Rate (U2OS; 24 h, replicate number 2): 0.62; Growth Rate (HEK-293T; 6 h, replicate number 1): 0.24; Growth Rate (HEK-293T; 18 h, replicate number 1): 0.28; Growth Rate (HEK-293T; 24 h, replicate number 1): 0.26
4 | N#CC[C@H](C1CCCC1)n1cc(-c2ncnc3[nH]ccc23)cn1 [RUXOLITINIB] |  |  |  |  |  |  |  | -1 |  |  |  |  | -0.91 | -0.15 |  |  |  |  |  | 0.86 | Growth Rate (Fibroblast; 0 h, replicate number 1): -1; Growth Rate (HEK-293T; 6 h, replicate number 1): 0.27
5 | Oc1ccc(-c2nc(-c3ccncc3)c(-c3ccc(F)cc3)[nH]2)cc1 [SB-202190] | 0.11 |  | -0.11 |  |  |  |  | -0.88 | -0.95 |  |  |  | 0 | -0.17 |  |  |  |  | 0.62 |  | Growth Rate (Fibroblast; 0 h, replicate number 2): -0.18
6 | O=C(Nc1ccccc1Br)N[C@@H]1CCN(c2ccc(C(F)(F)F)cn2)C1 [SB-705498] | 0.4 | -0.3 |  |  | 0.51 | 0.34 | 0.58 | -0.73 | -0.91 | 0.83 |  |  |  |  | -0.43 | -0.08 | 0.1 | 0.07 | 0.55 | 0.76 | Growth Rate (Fibroblast; 0 h, replicate number 1): 0.33; Growth Rate (Fibroblast; 0 h, replicate number 2): 0.7; Growth Rate (U2OS; 6 h, replicate number 1): 0.99; Growth Rate (HEK-293T; 18 h, replicate number 1): 0.32; Growth Rate (HEK-293T; 24 h, replicate number 1): 0.31
7 | COc1ccc(-n2nc(C(F)(F)F)cc2-c2ccc(Cl)cc2)cc1 [SC-560] | 0.63 | -0.87 | 0.59 | 0.62 | 0.54 | 0.68 | 0.62 |  |  |  | 0.86 | 0.95 | 0.2 | 0.61 | 0.8 |  |  | 0.9 | 0.09 |  | Growth Rate (Fibroblast; 0 h, replicate number 1): -1; Growth Rate (U2OS; 6 h, replicate number 1): 0.67; Growth Rate (U2OS; 6 h, replicate number 2): 0.83; Growth Rate (U2OS; 24 h, replicate number 2): 0.98
8 | CO[C@H]1C[C@@H]2CC[C@@H](C)[C@@](O)(O2)C(=O)C(=O)N2CCCC[C@H]2C(=O)O[C@H]([C@H](C)C[C@@H]2CC[C@@H](O)[C@H](OC)C2)CC(=O)[C@H](C)/C=C(\C)[C@@H](O)[C@@H](OC)C(=O)[C@H](C)C[C@H](C)/C=C/C=C/C=C/1C [SIROLIMUS] | 0.43 |  | 0.47 | 0.23 | 0.97 | 0.35 | 0.84 |  | 0.94 | 0.93 | 0.81 |  | -0.78 | -0.17 | 0.36 | 0.13 | 0.23 | 0.3 | 0.93 | -0.06 | Growth Rate (U2OS; 24 h, replicate number 1): 0.94; Growth Rate (HEK-293T; 6 h, replicate number 1): -0.13; Growth Rate (HEK-293T; 18 h, replicate number 1): 0.16; Growth Rate (HEK-293T; 24 h, replicate number 1): 0.26
9 | CN1CCN(c2nc(C3=C(c4c[nH]c5ccccc45)C(=O)NC3=O)c3ccccc3n2)CC1 [SOTRASTAURIN] | -0.88 |  | -1 |  |  |  |  | -0.78 | -0.29 |  |  |  | -0.3 | -0.61 |  |  |  |  |  |  | Growth Rate (Fibroblast; 0 h, replicate number 2): -0.97
10 | CCOC(=O)N1CCC(CN(Cc2ccc(Cl)cc2)Cc2ccc([N+](=O)[O-])s2)C1 (configuration not stated) [SR9009] | 0.43 |  | 0.41 | 0.3 | 0.38 | 0.48 | 0.39 | -0.35 |  | 0.94 |  |  |  |  | 0.23 | 0.27 | 0.28 | 0.35 | 0.2 | 0.42 | Growth Rate (HEK-293T; 6 h, replicate number 1): 0.39; Growth Rate (HEK-293T; 18 h, replicate number 1): 0.48; Growth Rate (HEK-293T; 24 h, replicate number 1): 0.41
11 | CCCCCNC(=O)N1CCC(CN(Cc2ccc(Cl)cc2)Cc2ccc([N+](=O)[O-])s2)C1 (configuration not stated) [SR9011] | 0.11 | -0.29 | 0.48 | 0.55 | 0.66 | 0.54 | 0.64 | 0.35 |  | 0.81 | 0.86 | 0.94 |  | -0.74 | 0.86 | 0.62 | 0.59 | 0.49 | 0.55 | 0.42 | Growth Rate (U2OS; 6 h, replicate number 1): 0.88; Growth Rate (U2OS; 6 h, replicate number 2): 0.94; Growth Rate (U2OS; 18 h, replicate number 1): 0.9; Growth Rate (U2OS; 24 h, replicate number 1): 0.85; Growth Rate (U2OS; 24 h, replicate number 2): 0.83; Growth Rate (HEK-293T; 6 h, replicate number 1): 0.47; Growth Rate (HEK-293T; 18 h, replicate number 1): 0.51; Growth Rate (HEK-293T; 24 h, replicate number 1): 0.54
12 | CC[N+](CC)(CC)CCOc1ccc(/C=C/c2ccccc2)cc1.[I-] [STILONIUM IODIDE] |  | -1 |  | 0.28 | 0.62 |  | 0.58 | -0.67 | -0.99 |  | 1 | 0.93 | 1 | 0.44 | 0 | -0.14 | -0.12 | -0.15 | 0.37 | -0.18 | Growth Rate (Fibroblast; 0 h, replicate number 1): 0.94; Growth Rate (U2OS; 24 h, replicate number 2): 0.84; Growth Rate (HEK-293T; 6 h, replicate number 1): -0.34; Growth Rate (HEK-293T; 18 h, replicate number 1): -0.14; Growth Rate (HEK-293T; 24 h, replicate number 1): -0.22
13 | O=C1C[C@@H]2OCC=C3CN4CC[C@]56c7ccccc7N1[C@H]5[C@H]2[C@H]3C[C@H]46 [STRYCHNINE] | 0.71 |  | -0.92 | 0.57 | 0.93 | 0.81 | 0.91 |  |  | 0.95 | 0.85 | 0.77 | 0.93 | 0.94 | 0.44 | 0.86 |  |  |  |  | Growth Rate (Fibroblast; 0 h, replicate number 2): -0.75; Growth Rate (U2OS; 6 h, replicate number 2): 0.65; Growth Rate (U2OS; 18 h, replicate number 1): 0.88; Growth Rate (U2OS; 24 h, replicate number 1): 0.87; Growth Rate (U2OS; 24 h, replicate number 2): 0.91
